According to ChEMBL document CHEMBL3137381, “MMV Box Onchocerca lienalis screening set”:

Assays:
Format in all cases: functional
Onchocerca lienalis [1] = experiment: MMV: Percent motility assay at a compound concentration of 1.9e-7 M. Activity score legend: 3: Active, 2: Moderately active; 1: Inactive, 0: Toxic; settings: at 0.19 µM
Onchocerca lienalis [2] = experiment: MMV: Percent motility assay at a compound concentration of 7.8e-7 M. Activity score legend: 3: Active, 2: Moderately active; 1: Inactive, 0: Toxic; settings: at 0.78 µM
Onchocerca lienalis [3] = experiment: MMV: Percent motility assay at a compound concentration of 1.25e-5 M. Activity score legend: 3: Active, 2: Moderately active; 1: Inactive, 0: Toxic; settings: at 12.5 µM
Onchocerca lienalis [4] = experiment: MMV: Percent motility assay at a compound concentration of 3.1e-6 M. Activity score legend: 3: Active, 2: Moderately active; 1: Inactive, 0: Toxic; settings: at 3.1 µM

O=C(Nc1ccccc1O)c1ccc(Oc2cccc(C(=O)Nc3ccccc3O)c2)cc1
Motility (Onchocerca lienalis [1]): 100% | Motility (Onchocerca lienalis [2]): 100% | Motility (Onchocerca lienalis [3]): 100% | Motility (Onchocerca lienalis [4]): 100%

Cl.N=c1n(CCN2CCCCC2)c2ccccc2n1CC(O)c1cccc(Br)c1 (stereo not given)
Motility (Onchocerca lienalis [1]): 100% | Motility (Onchocerca lienalis [2]): 100% | Motility (Onchocerca lienalis [3]): 100% | Motility (Onchocerca lienalis [4]): 100%

COc1cccc(O)c1CN1CCC2(CCCN(Cc3ccc(F)cc3)C2)C1 (stereo not given)
Motility (Onchocerca lienalis [1]): 100% | Motility (Onchocerca lienalis [2]): 100% | Motility (Onchocerca lienalis [3]): 100% | Motility (Onchocerca lienalis [4]): 100%

O=C(NCc1ccco1)C1CCN(S(=O)(=O)c2ccc(Cl)cc2)CC1
Motility (Onchocerca lienalis [1]): 100% | Motility (Onchocerca lienalis [2]): 100% | Motility (Onchocerca lienalis [3]): 100% | Motility (Onchocerca lienalis [4]): 100%

COc1ccc(C(=O)Nc2ccc3nc(N4CCCCC4)cc(C)c3c2)cc1OC
Motility (Onchocerca lienalis [1]): 100% | Motility (Onchocerca lienalis [2]): 100% | Motility (Onchocerca lienalis [3]): 100% | Motility (Onchocerca lienalis [4]): 100%

FC(F)(F)c1ccc(Nc2nnnc3ccccc23)cc1
Motility (Onchocerca lienalis [1]): 100% | Motility (Onchocerca lienalis [2]): 100% | Motility (Onchocerca lienalis [3]): 100% | Motility (Onchocerca lienalis [4]): 100%

c1ccc(-c2ccc(-c3nc4ccccc4[nH]3)cc2)cc1
Motility (Onchocerca lienalis [1]): 100% | Motility (Onchocerca lienalis [2]): 100% | Motility (Onchocerca lienalis [3]): 66.6% | Motility (Onchocerca lienalis [4]): 100%

COc1cccc(NC(=O)Cn2c(C)c(C#N)c3ccccc32)c1
Motility (Onchocerca lienalis [1]): 100% | Motility (Onchocerca lienalis [2]): 100% | Motility (Onchocerca lienalis [3]): 100% | Motility (Onchocerca lienalis [4]): 100%

Cn1c(=O)c2cc(C(=O)NCCCN3CCCCCC3)sc2c2ccccc21
Motility (Onchocerca lienalis [1]): 100% | Motility (Onchocerca lienalis [2]): 100% | Motility (Onchocerca lienalis [3]): 100% | Motility (Onchocerca lienalis [4]): 100%

COc1ccc(CCN2CCC(CN(C)Cc3cnn(-c4ccccc4)c3)CC2)cc1
Motility (Onchocerca lienalis [1]): 100% | Motility (Onchocerca lienalis [2]): 100% | Motility (Onchocerca lienalis [3]): 100% | Motility (Onchocerca lienalis [4]): 100%

O=C(NC(c1ccccc1)c1ccc2cccnc2c1O)c1ccccc1 (stereo not given)
Motility (Onchocerca lienalis [1]): 100% | Motility (Onchocerca lienalis [2]): 100% | Motility (Onchocerca lienalis [3]): 26.66% | Motility (Onchocerca lienalis [4]): 33.33%

CC(C)=CCN1CCC(C(=O)Nc2ccc(-c3nc4ccccc4[nH]3)cc2)CC1
Motility (Onchocerca lienalis [1]): 100% | Motility (Onchocerca lienalis [2]): 100% | Motility (Onchocerca lienalis [3]): 100% | Motility (Onchocerca lienalis [4]): 100%

O=C(CCc1ccco1)NC1CCN(CC2(c3ccc(Cl)cc3)CCC2)CC1
Motility (Onchocerca lienalis [1]): 100% | Motility (Onchocerca lienalis [2]): 100% | Motility (Onchocerca lienalis [3]): 100% | Motility (Onchocerca lienalis [4]): 100%

FC(F)(F)c1cccc(Nc2nc(-c3ccccc3)nc3ncccc23)c1
Motility (Onchocerca lienalis [1]): 100% | Motility (Onchocerca lienalis [2]): 100% | Motility (Onchocerca lienalis [3]): 100% | Motility (Onchocerca lienalis [4]): 100%

CCN1CCN(c2cc(C)c3cc(NC(=O)c4ccc(OC)c(OC)c4)ccc3n2)CC1
Motility (Onchocerca lienalis [1]): 100% | Motility (Onchocerca lienalis [2]): 100% | Motility (Onchocerca lienalis [3]): 100% | Motility (Onchocerca lienalis [4]): 100%

COc1ccc(CNC2CCN(c3ccc(NC(=O)c4cccc(Cl)c4)cc3)CC2)cc1OC
Motility (Onchocerca lienalis [1]): 100% | Motility (Onchocerca lienalis [2]): 100% | Motility (Onchocerca lienalis [3]): 100% | Motility (Onchocerca lienalis [4]): 100%

CC(NCc1ccccc1)c1cc(Cl)ccc1O (stereo not given)
Motility (Onchocerca lienalis [1]): 100% | Motility (Onchocerca lienalis [2]): 100% | Motility (Onchocerca lienalis [3]): 100% | Motility (Onchocerca lienalis [4]): 100%

O=C(c1ccccc1F)N(Cc1ccc(Cl)cc1)c1ccccn1
Motility (Onchocerca lienalis [1]): 100% | Motility (Onchocerca lienalis [2]): 100% | Motility (Onchocerca lienalis [3]): 100% | Motility (Onchocerca lienalis [4]): 100%

COc1ccc(C(=O)Nc2ccc(Cl)cc2C(=O)Nc2ccncc2)cc1
Motility (Onchocerca lienalis [1]): 100% | Motility (Onchocerca lienalis [2]): 100% | Motility (Onchocerca lienalis [3]): 100% | Motility (Onchocerca lienalis [4]): 100%

O=C(Nc1ccc(CN2CCOCC2)cc1)c1ccc(-c2ccc(Br)cc2)o1
Motility (Onchocerca lienalis [1]): 100% | Motility (Onchocerca lienalis [2]): 100% | Motility (Onchocerca lienalis [3]): 100% | Motility (Onchocerca lienalis [4]): 100%

CN(C)c1ccc(-c2nc3cc(N)ccc3[nH]2)cc1
Motility (Onchocerca lienalis [1]): 100% | Motility (Onchocerca lienalis [2]): 100% | Motility (Onchocerca lienalis [3]): 33.33% | Motility (Onchocerca lienalis [4]): 66.66%

O=C(CSc1ccc2nnc(-c3cccc(F)c3)n2n1)Nc1ccc2c(c1)OCO2
Motility (Onchocerca lienalis [1]): 100% | Motility (Onchocerca lienalis [2]): 100% | Motility (Onchocerca lienalis [3]): 100% | Motility (Onchocerca lienalis [4]): 100%

Cc1c(C)n(Cc2ccc(F)cc2)c2ccc(C(=O)NCc3ccco3)cc12
Motility (Onchocerca lienalis [1]): 100% | Motility (Onchocerca lienalis [2]): 100% | Motility (Onchocerca lienalis [3]): 100% | Motility (Onchocerca lienalis [4]): 100%

CCN(CC)c1ccc(NC(=O)c2cccs2)cc1
Motility (Onchocerca lienalis [1]): 100% | Motility (Onchocerca lienalis [2]): 100% | Motility (Onchocerca lienalis [3]): 100% | Motility (Onchocerca lienalis [4]): 100%

CCCCNCC(O)(c1ccc(Cl)cc1)c1ccc(Cl)cc1
Motility (Onchocerca lienalis [1]): 100% | Motility (Onchocerca lienalis [2]): 100% | Motility (Onchocerca lienalis [3]): 100% | Motility (Onchocerca lienalis [4]): 100%

O=C(Nc1ccsc1C(=O)NC1CCCCC1)c1ccc(F)cc1
Motility (Onchocerca lienalis [1]): 100% | Motility (Onchocerca lienalis [2]): 100% | Motility (Onchocerca lienalis [3]): 100% | Motility (Onchocerca lienalis [4]): 100%

O=C(Nc1cccc(C(F)(F)F)c1)c1cc(Cl)ccc1O
Motility (Onchocerca lienalis [1]): 100% | Motility (Onchocerca lienalis [2]): 100% | Motility (Onchocerca lienalis [3]): 0% | Motility (Onchocerca lienalis [4]): 53.33%

CCOc1cccc2sc(N(Cc3cccnc3)C(=O)C3CCCCC3)nc12
Motility (Onchocerca lienalis [1]): 100% | Motility (Onchocerca lienalis [2]): 100% | Motility (Onchocerca lienalis [3]): 100% | Motility (Onchocerca lienalis [4]): 100%

CCN(CC)c1cc(C)c2cc(NC(=O)c3cccc(OC)c3)ccc2n1
Motility (Onchocerca lienalis [1]): 100% | Motility (Onchocerca lienalis [2]): 100% | Motility (Onchocerca lienalis [3]): 100% | Motility (Onchocerca lienalis [4]): 100%

CCOc1ccc(/C=C/c2nc(=O)c3ccccc3o2)cc1
Motility (Onchocerca lienalis [1]): 100% | Motility (Onchocerca lienalis [2]): 100% | Motility (Onchocerca lienalis [3]): 100% | Motility (Onchocerca lienalis [4]): 100%

O=C(Nc1ccccc1O)c1ccc(-c2ccc(Cl)cc2Cl)o1
Motility (Onchocerca lienalis [1]): 100% | Motility (Onchocerca lienalis [2]): 100% | Motility (Onchocerca lienalis [3]): 100% | Motility (Onchocerca lienalis [4]): 100%

O=C(Nc1nc(-c2ccccn2)cs1)c1ccccc1Br
Motility (Onchocerca lienalis [1]): 100% | Motility (Onchocerca lienalis [2]): 100% | Motility (Onchocerca lienalis [3]): 0% | Motility (Onchocerca lienalis [4]): 60%

CC(O)(c1ccc(Cl)cc1)C(CN1CCCCC1)c1ccccc1.Cl (stereo not given)
Motility (Onchocerca lienalis [1]): 100% | Motility (Onchocerca lienalis [2]): 100% | Motility (Onchocerca lienalis [3]): 66.6% | Motility (Onchocerca lienalis [4]): 100%

CCOc1ccc(-c2nc(NC(=O)c3cccc(S(C)(=O)=O)c3)sc2C)cc1
Motility (Onchocerca lienalis [1]): 100% | Motility (Onchocerca lienalis [2]): 100% | Motility (Onchocerca lienalis [3]): 100% | Motility (Onchocerca lienalis [4]): 100%

CCOc1ccccc1CNC(=O)C1c2ccccc2C(=O)N(CC(C)C)C1c1cccs1 (stereo not given)
Motility (Onchocerca lienalis [1]): 100% | Motility (Onchocerca lienalis [2]): 100% | Motility (Onchocerca lienalis [3]): 100% | Motility (Onchocerca lienalis [4]): 100%

COc1ccccc1N1CCN(C(CNS(=O)(=O)c2ccc(Cl)cc2)c2cccnc2)CC1 (stereo not given)
Motility (Onchocerca lienalis [1]): 100% | Motility (Onchocerca lienalis [2]): 100% | Motility (Onchocerca lienalis [3]): 100% | Motility (Onchocerca lienalis [4]): 100%

CCCc1c(C)nc2ccccc2c1O
Motility (Onchocerca lienalis [1]): 100% | Motility (Onchocerca lienalis [2]): 100% | Motility (Onchocerca lienalis [3]): 100% | Motility (Onchocerca lienalis [4]): 100%

CCN(CC)CCCNc1nc(-c2ccc(Cl)cc2)nc2ccccc12
Motility (Onchocerca lienalis [1]): 100% | Motility (Onchocerca lienalis [2]): 100% | Motility (Onchocerca lienalis [3]): 66.6% | Motility (Onchocerca lienalis [4]): 100%

CN1c2ccccc2N(C)C1c1ccc2c(c1)OCO2
Motility (Onchocerca lienalis [1]): 100% | Motility (Onchocerca lienalis [2]): 100% | Motility (Onchocerca lienalis [3]): 100% | Motility (Onchocerca lienalis [4]): 100%

C=C(C)CCC(C)N1CCC(N2CCC(C(=O)NCCc3ccccc3)CC2)CC1 (stereo not given)
Motility (Onchocerca lienalis [1]): 100% | Motility (Onchocerca lienalis [2]): 100% | Motility (Onchocerca lienalis [3]): 100% | Motility (Onchocerca lienalis [4]): 100%
